Tests used:
Assay type in all cases: cell-based
[1] = tested on: Bacillus megaterium DSM 32963 cells; assay: Lipidometabolomics (UPLC-MS/MS) of PUFA oxygenation products in supernatants of B. megaterium DSM 32963 with AvailOm; conditions: for abundance with dispersion formulation and/or bile acids compared to AvailOm alone (in words): B. megaterium DSM 32963 supernatants; for Extracellular concentration of PUFA oxygenation product: − bile acids, net of cell-free control
Description: To investigate the amount of extracellularly appearing 18-HEPE, the B. megaterium DSM 32963 cells were cultivated as described in example 1. The cells were resuspended in 10 ml LBG or LBG containing 9.76 g/I FeSSIF-V2 (biorelevant.com), which is a mixture of taurocholate, phospholipids and other components designed to simulate bile surfactants, and 2 ml of supplements (table 2) were added, respectively. Additionally, the supplements were also added respectively to the different media in shaking flasks without cells and treated under the same conditions (controls). The 18-HEPE concentrations of the culture supernatants and controls were determined after incubation at 16 h, 30° C. and 200 rpm (table 4). […] Of note, the omega-3 4 18-HEPE conversion rate detected by this method is up to 0.075, which exceeds the basal content of 18-HEPE of 0.0005% in an esterified fish oil, disclosed by WO 2017/041094. More importantly, we discovered that the omega-3 lysine salt is converted by Bacillus megaterium strains to a multitude of (final) SPM products at even higher concentrations than 18-HEPE (see example 6), which is of physiological relevance.
(§1) Bacterial supernatant samples were subjected to lipid extraction using RP-phase solid phase extraction and subsequently analyzed by ultra performance liquid chromatography ESI tandem mass spectrometry (UPLC-MS/MS) according to a published procedure. Under these conditions approximately 40 different LM, including 5-hydroxy-eicosapentaenoic acid 5-HEPE, 8-HEPE, 11-HEPE, 12-HEPE, 15-HEPE, 18-HEPE, 5-hydroxy-eicosatetraenoic acid (5-HETE), 8-HETE, 11-HETE, 12-HETE, 15-HETE, 4-hydroxy-DHA (4-HDHA), 7-HDHA, 13-HDHA, 14-HDHA, 17-HDHA, lipoxin A4 (LXA4), LXB4, resolvin E1 (RvE1), RvE3, resolvin D1-5 (RvD1-5), AT-RvD1, RvD2, protectin D1 (PD1), AT-PD1, maresin 1(MaR1), MaR2, plus 4 fatty acid substrates can be detected with a lower limit of detection of 1 pg.
To investigate if Bacillus megaterium is capable of producing other PUFA oxygenation products in addition to 18-HEPE, a lipidometabolomics screening of supernatants from Bacillus megaterium strain 32963 cultured as in example 4 with AvailOm® was performed, either dissolved or in a dispersion formulation, with or without bile acids. Cell-free preparations of AvailOm® formulations were treated and analyzed in parallel and served as controls for non-enzymatic, spontaneous formation of oxygenation products. Values given in table 6 display net concentrations of products formed, i.e. after subtraction of control values. […] Concentrations of several SPM exceed by far the concentrations of SPM found in human plasma samples, which are typically in a range of ˜20-100 pg/ml. For comparison, human breast milk contains ˜6.000 pg/ml RvE1 and ˜10.000 pg/ml RvD1 [42].

[2] = tested on: Bacillus megaterium DSM 33296; assay: Lipidometabolomics of supernatants of B. megaterium DSM 33296 with AvailOm dispersion; conditions: Bacillus megaterium DSM 33296, AvailOm dispersion; net concentrations
From the text: as §1
(§2) 47 additional Bacillus megaterium strains sourced from various habitats were screened for their SPM production capacity to determine if this is a general phenomenon of the species Bacillus megaterium and to detect strain-specific differences in types and quantities of SPM being produced. Cells were cultured as detailed in example 4, with dispersion formulation of AvailOm® serving as omega-3 fatty acid source. Cell-free preparations of AvailOm® were treated and analyzed in parallel and served as controls for non-enzymatic, spontaneous formation of oxygenation products. […]

[3] = tested on: Bacillus megaterium DSM 33299; assay: Lipidometabolomics of supernatants of B. megaterium DSM 33299 with AvailOm dispersion; conditions: Bacillus megaterium DSM 33299, AvailOm dispersion; net concentrations
From the text: as §1, §2

[4] = tested on: Bacillus megaterium strains; assay: Screen of 47 additional Bacillus megaterium strains for SPM production capacity; conditions: 47 additional strains, AvailOm dispersion
From the text: as §1, §2

Row | Molecule | abundance with dispersion formulation and/or bile acids compared to AvailOm alone (in words) [1] | also measured
1 | 5-hydroxy-eicosatetraenoic acid [5-HETE] | lower | –
2 | 9-hydroxyoctadecadienoic acid [9-HODE] | lower | –
3 | 11-hydroxy-eicosapentaenoic acid [11-HEPE] | lower | –
4 | 12-hydroxy-eicosapentaenoic acid [12-HEPE] | lower | –
5 | CCC=CCC=CCC=CCC=CC=CC(O)CCCC(=O)O (stereo not shown) [5-HEPE, 5-hydroxy-eicosapentaenoic acid] | lower | –
6 | CCCCC/C=C\C/C=C\C=C\C(O)C/C=C\CCCC(=O)O (stereo not shown) [8-HETE, 8-hydroxy-eicosatetraenoic acid] | lower | –
7 | CC/C=C\CC(O)/C=C/C=C\C/C=C\C/C=C\CCCC(=O)O (stereo not shown) [15-HEPE, 15-hydroxy-eicosapentaenoic acid] | lower | –
8 | CCC(O)/C=C/C=C\C/C=C\C/C=C\C/C=C\CCCC(=O)O (stereo not shown) [18-HEPE, 18-hydroxy-eicosapentaenoic acid] | lower | –
9 | CC/C=C\C[C@H](O)/C=C/C=C\C=C\C=C\[C@@H](O)[C@@H](O)C/C=C\CCC(=O)O [RvD1, resolvin D1] | – | Extracellular concentration of PUFA oxygenation product ([1]; AvailOm dispersion): 1863 pg/mL; Extracellular concentration of PUFA oxygenation product ([1]; AvailOm): 598 pg/mL; Extracellular concentration of PUFA oxygenation product [2]: 3626 pg/mL; Extracellular concentration of PUFA oxygenation product [3]: 4389 pg/mL
10 | CC[C@H](O)C(O)/C=C/C=C/C=C\C/C=C\C/C=C\CCCC(=O)O (stereo partly shown) [RvE3, resolvin E3] | – | concentration in most of the strains [4]: up to 1.3 μg/ml

Reference: patent publication US20210392935A1, “PREPARATION COMPRISING A PROBIOTIC STRAIN OF THE GENUS BACILLUS MEGATERIUM AND A POLYUNSATURATED FATTY ACID COMPONENT” (Evonik Operations GmbH, priority 2018, published 2021)
